# Data published in paper PMC2993883 (Journal of Neural Transmission, 2010).
# Assays:
# Test in all cases: IMAP fluorescence polarization PDE assay, 8-point IC50
# Type in all cases: biochemical
# PDE-2A3 = PDE-2A3 (Homo sapiens, UniProt O00408)
# PDE-3A = PDE-3A (Homo sapiens, UniProt Q14432)
# PDE-10A1 = PDE-10A1 (Homo sapiens, UniProt Q9Y233)
# PDE-4A1 = PDE-4A1 (Homo sapiens, UniProt P27815)
# Sequence of PDE-4A1 (P27815 265-886 limits assumed): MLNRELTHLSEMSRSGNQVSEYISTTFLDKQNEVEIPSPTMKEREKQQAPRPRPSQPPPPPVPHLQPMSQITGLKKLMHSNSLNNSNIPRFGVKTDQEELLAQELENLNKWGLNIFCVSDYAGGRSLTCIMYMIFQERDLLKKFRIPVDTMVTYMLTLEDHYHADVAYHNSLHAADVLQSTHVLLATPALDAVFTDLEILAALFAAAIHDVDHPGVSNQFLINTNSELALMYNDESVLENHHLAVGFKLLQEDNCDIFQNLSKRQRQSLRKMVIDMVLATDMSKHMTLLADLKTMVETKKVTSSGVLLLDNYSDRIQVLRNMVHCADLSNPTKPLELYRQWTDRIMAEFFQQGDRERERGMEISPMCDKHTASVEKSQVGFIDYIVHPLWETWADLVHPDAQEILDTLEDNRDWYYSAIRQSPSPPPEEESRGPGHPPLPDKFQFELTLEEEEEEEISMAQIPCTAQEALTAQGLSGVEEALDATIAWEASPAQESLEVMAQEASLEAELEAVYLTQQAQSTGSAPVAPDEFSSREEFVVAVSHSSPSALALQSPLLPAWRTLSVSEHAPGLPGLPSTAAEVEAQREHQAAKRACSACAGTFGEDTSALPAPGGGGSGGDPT
# Sequence of PDE-10A1 (Q9Y233 1-779 isoform Q9Y233-1): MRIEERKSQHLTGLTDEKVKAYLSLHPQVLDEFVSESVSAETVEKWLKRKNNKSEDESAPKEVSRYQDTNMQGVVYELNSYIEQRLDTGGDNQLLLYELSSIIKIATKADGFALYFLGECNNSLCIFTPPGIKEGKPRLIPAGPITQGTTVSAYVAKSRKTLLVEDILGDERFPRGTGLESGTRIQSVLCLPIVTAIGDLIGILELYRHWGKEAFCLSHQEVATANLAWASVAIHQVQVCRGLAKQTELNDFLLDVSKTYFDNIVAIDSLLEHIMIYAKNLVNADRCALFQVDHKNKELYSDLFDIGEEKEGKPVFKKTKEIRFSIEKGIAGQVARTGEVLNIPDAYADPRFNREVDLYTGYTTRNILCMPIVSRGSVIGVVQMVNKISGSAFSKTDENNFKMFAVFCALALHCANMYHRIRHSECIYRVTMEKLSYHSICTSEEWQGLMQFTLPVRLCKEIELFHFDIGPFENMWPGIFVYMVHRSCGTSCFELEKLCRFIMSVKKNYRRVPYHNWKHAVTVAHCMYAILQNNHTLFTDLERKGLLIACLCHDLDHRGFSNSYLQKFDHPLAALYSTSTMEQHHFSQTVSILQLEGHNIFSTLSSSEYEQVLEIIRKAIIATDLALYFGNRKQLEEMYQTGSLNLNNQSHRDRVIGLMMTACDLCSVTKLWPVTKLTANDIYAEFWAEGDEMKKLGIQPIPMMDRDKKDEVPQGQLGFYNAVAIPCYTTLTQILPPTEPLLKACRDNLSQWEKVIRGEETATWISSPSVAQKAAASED
# Sequence of PDE-2A3 (O00408 2-941): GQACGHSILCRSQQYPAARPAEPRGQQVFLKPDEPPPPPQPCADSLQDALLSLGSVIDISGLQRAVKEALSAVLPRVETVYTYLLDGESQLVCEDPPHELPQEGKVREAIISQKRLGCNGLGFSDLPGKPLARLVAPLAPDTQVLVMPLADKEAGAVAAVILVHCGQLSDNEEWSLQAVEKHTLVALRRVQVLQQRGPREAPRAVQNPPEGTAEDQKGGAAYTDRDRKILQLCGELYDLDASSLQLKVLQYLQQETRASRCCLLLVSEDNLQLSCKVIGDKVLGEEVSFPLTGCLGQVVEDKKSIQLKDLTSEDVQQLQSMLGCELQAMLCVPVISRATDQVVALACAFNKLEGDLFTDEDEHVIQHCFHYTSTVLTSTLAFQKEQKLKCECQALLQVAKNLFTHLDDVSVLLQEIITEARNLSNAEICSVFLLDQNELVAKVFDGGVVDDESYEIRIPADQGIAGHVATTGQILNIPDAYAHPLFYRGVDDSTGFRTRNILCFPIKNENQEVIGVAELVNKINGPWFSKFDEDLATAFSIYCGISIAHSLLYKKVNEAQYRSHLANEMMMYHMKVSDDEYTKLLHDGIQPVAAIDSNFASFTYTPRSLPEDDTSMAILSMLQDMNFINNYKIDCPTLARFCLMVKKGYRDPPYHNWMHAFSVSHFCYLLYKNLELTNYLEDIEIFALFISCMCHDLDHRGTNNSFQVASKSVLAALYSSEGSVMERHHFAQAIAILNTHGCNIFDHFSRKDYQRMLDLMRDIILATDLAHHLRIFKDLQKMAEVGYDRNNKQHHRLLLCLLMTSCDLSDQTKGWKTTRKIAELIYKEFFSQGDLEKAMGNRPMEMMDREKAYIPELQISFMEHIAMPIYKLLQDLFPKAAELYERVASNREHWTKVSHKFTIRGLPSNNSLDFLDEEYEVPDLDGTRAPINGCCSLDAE
# Sequence of PDE-3A (Q14432 whole entry): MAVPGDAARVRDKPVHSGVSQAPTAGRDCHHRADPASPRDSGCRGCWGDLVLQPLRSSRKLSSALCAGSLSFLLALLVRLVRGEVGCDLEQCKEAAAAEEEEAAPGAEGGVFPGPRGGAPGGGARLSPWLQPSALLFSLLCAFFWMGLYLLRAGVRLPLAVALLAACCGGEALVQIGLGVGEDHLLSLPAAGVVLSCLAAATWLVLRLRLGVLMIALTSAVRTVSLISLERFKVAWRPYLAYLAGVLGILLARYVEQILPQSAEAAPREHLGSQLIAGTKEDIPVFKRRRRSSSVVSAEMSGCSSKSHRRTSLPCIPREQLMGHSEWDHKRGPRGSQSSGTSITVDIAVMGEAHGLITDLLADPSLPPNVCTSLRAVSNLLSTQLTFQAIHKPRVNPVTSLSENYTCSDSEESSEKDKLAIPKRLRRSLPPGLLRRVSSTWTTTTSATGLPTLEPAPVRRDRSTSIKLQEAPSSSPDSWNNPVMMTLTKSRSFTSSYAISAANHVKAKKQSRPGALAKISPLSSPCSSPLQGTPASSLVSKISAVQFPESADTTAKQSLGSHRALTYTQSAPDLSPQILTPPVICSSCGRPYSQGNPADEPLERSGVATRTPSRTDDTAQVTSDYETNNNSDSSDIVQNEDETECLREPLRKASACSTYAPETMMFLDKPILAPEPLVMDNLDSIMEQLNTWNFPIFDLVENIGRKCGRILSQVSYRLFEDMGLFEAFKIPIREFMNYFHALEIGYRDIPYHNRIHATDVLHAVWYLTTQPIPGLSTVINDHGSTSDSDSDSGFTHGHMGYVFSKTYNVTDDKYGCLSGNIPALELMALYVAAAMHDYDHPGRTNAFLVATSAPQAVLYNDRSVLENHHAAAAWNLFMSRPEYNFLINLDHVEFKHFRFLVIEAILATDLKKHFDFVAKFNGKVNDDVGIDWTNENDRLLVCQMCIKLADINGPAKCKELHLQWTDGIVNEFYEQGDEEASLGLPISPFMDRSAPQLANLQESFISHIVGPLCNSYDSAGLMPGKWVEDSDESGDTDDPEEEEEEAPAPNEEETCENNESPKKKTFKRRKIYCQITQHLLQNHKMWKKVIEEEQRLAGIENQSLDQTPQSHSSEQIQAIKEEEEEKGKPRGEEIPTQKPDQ
smiles,measurement,setting,value
"CCC1C(C)=NN=C(c2ccc(OC)c(OC)c2)c2cc(OC)c(OC)cc21 (racemic) [tofisopam, 1-(3,4-dimethoxyphenyl)-5-ethyl-7,8-dimethoxy-4-methyl-5H-2,3-benzodiazepine]",IC50,PDE-2A3,2110 nM
same,IC50,PDE-3A,1980 nM
same,IC50,PDE-10A1,920 nM
same,IC50,PDE-4A1,420 nM
